“And” between values parts separate entries of the source, which are not always exact repeats. Identical values can stand only once.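 These data come from cells grown in 96-well plates and exposed to compound for 48 hours at five concentrations. Here, GI50 denotes the concentration required for 50% inhibition of growth. TGI: concentration producing complete growth inhibition.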
Legend:
Test in all cases: NCI anticancer screen, dose series, 48 h
[1] = system: PC-3 prostate
[2] = system: NCI-H522 lung
[3] = system: MALME-3M melanoma
[4] = system: MCF7 breast
[5] = system: SNB-75 CNS
[6] = system: SF-268 CNS
[7] = system: HT29 colon
[8] = system: SK-OV-3 ovarian
[9] = system: SF-539 CNS
[10] = system: HOP-62 NSCLC
[11] = system: ACHN renal
[12] = system: MDA-MB-435
[13] = system: UACC-257 melanoma
[14] = system: U251 CNS
[15] = system: HCT-15 colon
[16] = system: HS 578T breast
[17] = system: HCC-2998 colon
[18] = system: 786-0 renal
[19] = system: A549 NSCLC
[20] = system: HL-60(TB) leukemia
[21] = system: OVCAR-8 ovarian
[22] = system: MOLT-4 leukemia
[23] = system: T-47D breast
[24] = system: NCI/ADR-RES ovarian
[25] = system: COLO 205 colon
[26] = system: SNB-19 CNS
[27] = system: M14 melanoma
[28] = system: A498 renal
[29] = system: CCRF-CEM leukemia
[30] = system: RXF 393 renal
[31] = system: NCI-H23 lung
[32] = system: OVCAR-5 ovarian
[33] = system: IGROV1 ovarian
[34] = system: SW-620 colon
[35] = system: OVCAR-3 ovarian
[36] = system: SR leukemia
[37] = system: OVCAR-4 ovarian
[38] = system: DU-145 prostate
[39] = system: NCI-H226 lung
[40] = system: SN12C renal
[41] = system: SK-MEL-28 melanoma
[42] = system: KM12 colon
[43] = system: HOP-92 NSCLC
[44] = system: EKVX NSCLC
[45] = system: MDA-MB-231 breast
[46] = system: HCT-116 colon
[47] = system: CAKI-1 renal
[48] = system: SK-MEL-5 melanoma
[49] = system: K-562 leukemia
[50] = system: UACC-62 melanoma
[51] = system: LOX IMVI melanoma
[52] = system: RPMI-8226 leukemia
[53] = system: SF-295 CNS
[54] = system: NCI-H460 lung
[55] = system: BT-549 breast
[56] = system: TK-10 renal
[57] = system: SK-MEL-2 melanoma
[58] = system: UO-31 renal

N#Cc1c(NCc2ccccc2)nc(NCc2ccccc2)c(C#N)c1-c1ccc(Cl)cc1
GI50 [1]: > 50 µM and 61.2 µM
TGI [1]: > 100 µM
GI50 [2]: 31.7 µM
TGI [2]: > 100 µM
GI50 [3]: > 100 µM
TGI [3]: > 100 µM
GI50 [4]: > 50 µM and 66.8 µM
TGI [4]: > 100 µM
GI50 [5]: > 50 µM and 34.7 µM
TGI [5]: > 100 µM
GI50 [6]: > 50 µM and 25.4 µM
TGI [6]: > 50 µM and 80 µM
GI50 [7]: > 100 µM
TGI [7]: > 100 µM
GI50 [8]: > 100 µM
TGI [8]: > 100 µM
GI50 [9]: > 50 µM and 29 µM
TGI [9]: > 100 µM
GI50 [10]: > 50 µM and 22.3 µM
TGI [10]: > 50 µM and 62.7 µM
GI50 [11]: > 50 µM and 43.4 µM
TGI [11]: > 100 µM
GI50 [12]: > 50 µM and 43.6 µM
TGI [12]: > 100 µM
GI50 [13]: > 100 µM
TGI [13]: > 100 µM
GI50 [14]: > 50 µM and 19.2 µM
TGI [14]: > 50 µM and 40.8 µM
GI50 [15]: > 100 µM
TGI [15]: > 100 µM
GI50 [16]: > 50 µM and 37.8 µM
TGI [16]: > 50 µM and 86.6 µM
GI50 [17]: > 100 µM
TGI [17]: > 100 µM
GI50 [18]: > 50 µM and 41.5 µM
TGI [18]: > 100 µM
GI50 [19]: > 50 µM and 51.5 µM
TGI [19]: > 100 µM
GI50 [20]: > 50 µM
TGI [20]: > 50 µM
GI50 [21]: > 50 µM and 45.7 µM
TGI [21]: > 100 µM
GI50 [22]: > 50 µM and 76.9 µM
TGI [22]: > 100 µM
GI50 [23]: > 100 µM
TGI [23]: > 100 µM
GI50 [24]: > 50 µM and 96.6 µM
TGI [24]: > 100 µM
GI50 [25]: > 50 µM and 76 µM
TGI [25]: > 100 µM
GI50 [26]: > 50 µM and 40.9 µM
TGI [26]: > 100 µM
GI50 [27]: > 50 µM and 53.5 µM
TGI [27]: > 100 µM
GI50 [28]: > 50 µM and 33 µM
TGI [28]: > 50 µM and 89.7 µM
GI50 [29]: > 50 µM and 22.5 µM
TGI [29]: > 50 µM and 49.5 µM
GI50 [30]: 65.5 µM
TGI [30]: > 100 µM
GI50 [31]: > 50 µM and 67.1 µM
TGI [31]: > 100 µM
GI50 [32]: > 50 µM and 77.3 µM
TGI [32]: > 100 µM
GI50 [33]: > 50 µM and 37.1 µM
TGI [33]: > 100 µM
GI50 [34]: > 50 µM and 44.1 µM
TGI [34]: > 100 µM
GI50 [35]: > 50 µM and 34.4 µM
TGI [35]: > 100 µM
GI50 [36]: > 50 µM and 19.7 µM
TGI [36]: > 50 µM and 58.5 µM
GI50 [37]: > 50 µM and 23.9 µM
TGI [37]: > 100 µM
GI50 [38]: > 50 µM and 52.8 µM
TGI [38]: > 100 µM
GI50 [39]: > 50 µM and 25.6 µM
TGI [39]: > 50 µM and 81.4 µM
GI50 [40]: > 50 µM and 36.2 µM
TGI [40]: > 100 µM
GI50 [41]: > 50 µM and 59 µM
TGI [41]: > 100 µM
GI50 [42]: > 50 µM and 85.8 µM
TGI [42]: > 100 µM
GI50 [43]: > 50 µM
TGI [43]: > 50 µM
GI50 [44]: 50.8 µM
TGI [44]: > 100 µM
GI50 [45]: > 50 µM and 31.9 µM
TGI [45]: > 100 µM
GI50 [46]: > 50 µM and 24.6 µM
TGI [46]: > 100 µM
GI50 [47]: > 100 µM
TGI [47]: > 100 µM
GI50 [48]: > 100 µM
TGI [48]: > 100 µM
GI50 [49]: > 50 µM
TGI [49]: > 50 µM
GI50 [50]: > 50 µM and 37.8 µM
TGI [50]: > 100 µM
GI50 [51]: > 50 µM and 29.7 µM
TGI [51]: > 100 µM
GI50 [52]: > 50 µM and 50.3 µM
TGI [52]: > 100 µM
GI50 [53]: > 50 µM and 36 µM
TGI [53]: > 100 µM
GI50 [54]: > 50 µM and 34.4 µM
TGI [54]: > 100 µM
GI50 [55]: 63.6 µM
TGI [55]: > 100 µM
GI50 [56]: > 50 µM and 62.7 µM
TGI [56]: > 100 µM
TGI [57]: > 50 µM and 30.4 µM
GI50 [58]: > 100 µM
TGI [58]: > 100 µM

Source: PubChem BioAssay (NCI)
